Measured values as given in ChEMBL document CHEMBL5352386 (Eur J Med Chem, 2022).

Assays:
[1] = tested on: PC-12; experiment: Cytotoxicity against rat PC12 cells assessed as survival rate at 100 uM measured after 24 hrs by MTT assay relative to control; conditions: PC-12, 24 h, read-out: Survival
[2] = target: Cholinesterase (Equus caballus, UniProt P81908); experiment: Inhibition of equine serum BuChE using butyrylthiocholine iodide as substrate incubated for 10 mins followed by substrate addition by DTNB-reagent based Ellman's colorimetric assay
Cholinesterase (Equus caballus, UniProt P81908), sequence (P81908 whole entry): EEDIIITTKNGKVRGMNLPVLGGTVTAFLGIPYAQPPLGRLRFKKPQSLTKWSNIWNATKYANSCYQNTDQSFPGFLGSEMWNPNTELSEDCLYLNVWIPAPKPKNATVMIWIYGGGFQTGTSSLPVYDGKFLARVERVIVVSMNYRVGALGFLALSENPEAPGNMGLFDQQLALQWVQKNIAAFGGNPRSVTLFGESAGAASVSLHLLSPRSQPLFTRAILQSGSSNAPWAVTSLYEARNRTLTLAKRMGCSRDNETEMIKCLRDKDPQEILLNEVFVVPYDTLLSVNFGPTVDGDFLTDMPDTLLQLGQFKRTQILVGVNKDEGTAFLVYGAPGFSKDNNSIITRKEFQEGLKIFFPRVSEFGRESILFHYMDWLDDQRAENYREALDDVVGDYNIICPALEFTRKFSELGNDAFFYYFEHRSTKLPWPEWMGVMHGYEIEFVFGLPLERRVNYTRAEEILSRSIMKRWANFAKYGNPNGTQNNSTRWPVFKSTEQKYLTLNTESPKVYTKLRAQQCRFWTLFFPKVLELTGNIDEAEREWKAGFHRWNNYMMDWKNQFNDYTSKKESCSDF

[3] = tested on: SH-SY5Y; experiment: Cytotoxicity against human SH-SY5Y cells assessed as survival rate at 100 uM measured after 24 hrs by MTT assay relative to control; assay type: functional; conditions: read-out: Survival
[4] = Cytotoxicity against mouse BV-2 cells assessed as inhibition of cell growth measured after 24 hrs by MTT assay; assay type: toxicity, cell-based
[5] = tested on: L02; experiment: Cytotoxicity against human L02 cells assessed as inhibition of cell growth measured after 24 hrs by MTT assay; assay type: functional, cell-based; conditions: L02, 24 h
[6] = target: Cholinesterase (Homo sapiens, UniProt P06276); experiment: Inhibition of human BuChE using butyrylthiocholine iodide as substrate incubated for 10 mins followed by substrate addition by DTNB-reagent based Ellman's colorimetric assay
Cholinesterase (Homo sapiens, UniProt P06276), sequence (P06276 whole entry): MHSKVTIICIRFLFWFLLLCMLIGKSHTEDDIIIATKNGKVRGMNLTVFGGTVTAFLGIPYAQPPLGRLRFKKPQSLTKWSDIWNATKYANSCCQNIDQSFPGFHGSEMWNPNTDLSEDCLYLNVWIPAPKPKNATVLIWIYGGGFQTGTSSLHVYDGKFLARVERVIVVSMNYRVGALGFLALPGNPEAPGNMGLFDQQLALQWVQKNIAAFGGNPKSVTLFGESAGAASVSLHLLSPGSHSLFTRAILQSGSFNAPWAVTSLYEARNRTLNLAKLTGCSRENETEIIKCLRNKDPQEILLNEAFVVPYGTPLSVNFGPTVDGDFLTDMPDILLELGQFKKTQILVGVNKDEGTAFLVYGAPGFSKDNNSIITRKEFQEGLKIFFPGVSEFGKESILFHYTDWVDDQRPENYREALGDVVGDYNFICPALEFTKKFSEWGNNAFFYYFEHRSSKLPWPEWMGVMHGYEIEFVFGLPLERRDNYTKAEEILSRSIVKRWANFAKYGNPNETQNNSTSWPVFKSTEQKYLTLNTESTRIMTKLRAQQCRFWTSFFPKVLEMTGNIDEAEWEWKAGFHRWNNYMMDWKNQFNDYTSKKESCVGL

[7] = tested on: L02; experiment: Cytotoxicity against human L02 cells assessed as survival rate at 100 uM measured after 24 hrs by MTT assay relative to control; assay type: functional; conditions: read-out: Survival
[8] = Cytotoxicity against mouse BV-2 cells assessed as survival rate at 2.5 uM measured after 24 hrs by MTT assay relative to control; assay type: toxicity, cell-based; conditions: read-out: Survival
[9] = tested on: SH-SY5Y; experiment: Cytotoxicity against human SH-SY5Y cells assessed as survival rate at 2.5 uM measured after 24 hrs by MTT assay relative to control; assay type: functional; conditions: read-out: Survival
[10] = tested on: L02; experiment: Cytotoxicity against human L02 cells assessed as survival rate at 2.5 uM measured after 24 hrs by MTT assay relative to control; assay type: functional; conditions: read-out: Survival
[11] = Cytotoxicity against mouse BV-2 cells assessed as survival rate at 100 uM measured after 24 hrs by MTT assay relative to control; assay type: toxicity, cell-based; conditions: read-out: Survival
[12] = tested on: SH-SY5Y; experiment: Cytotoxicity against human SH-SY5Y cells assessed as inhibition of cell growth measured after 24 hrs by MTT assay; assay type: functional, cell-based
[13] = tested on: PC-12; experiment: Cytotoxicity against rat PC12 cells assessed as inhibition of cell growth measured after 24 hrs by MTT assay; assay type: functional, cell-based; conditions: PC-12, 24 h
[14] = MRT infinity in Sprague-Dawley rat at 10 mg/kg, iv measured upto 1440 mins by LC/MS/MS analysis; assay type: ADME, organism-based; conditions: in vivo
[15] = Tmax in Sprague-Dawley rat at 10 mg/kg, iv measured upto 1440 mins by LC/MS/MS analysis; assay type: ADME, organism-based; conditions: in vivo
[16] = AUC (0 to t) in Sprague-Dawley rat at 10 mg/kg, po measured upto 1440 mins by LC/MS/MS analysis; assay type: ADME, organism-based; set-up: time < 1440 min, dose 10 mg/kg, route po; conditions: in vivo
[17] = AUC (0 to infinity) in Sprague-Dawley rat at 10 mg/kg, iv measured upto 1440 mins by LC/MS/MS analysis; assay type: ADME, organism-based; set-up: dose 10 mg/kg, time < 1440 min, route iv; conditions: in vivo, 24 h
[18] = AUC (0 to infinity) in Sprague-Dawley rat at 10 mg/kg, po measured upto 1440 mins by LC/MS/MS analysis; assay type: ADME, organism-based; set-up: dose 10 mg/kg, time < 1440 min, route po; conditions: in vivo
[19] = Oral bioavailability in Sprague-Dawley rat at 10 mg/kg measured upto 1440 mins by LC/MS/MS analysis; assay type: ADME, organism-based; conditions: in vivo
[20] = Half life in Sprague-Dawley rat at 10 mg/kg, iv measured upto 1440 mins by LC/MS/MS analysis; assay type: ADME, organism-based; conditions: in vivo
[21] = Cmax in Sprague-Dawley rat at 10 mg/kg, iv measured upto 1440 mins by LC/MS/MS analysis; assay type: ADME, organism-based; set-up: dose 10 mg/kg, time < 1440 min, route iv; conditions: in vivo, 24 h
[22] = AUC (0 to t) in Sprague-Dawley rat at 10 mg/kg, iv measured upto 1440 mins by LC/MS/MS analysis; assay type: ADME, organism-based; set-up: time < 1440 min, dose 10 mg/kg, route iv; conditions: in vivo, 24 h
[23] = Tmax in Sprague-Dawley rat at 10 mg/kg, po measured upto 1440 mins by LC/MS/MS analysis; assay type: ADME, organism-based; conditions: in vivo
[24] = Half life in Sprague-Dawley rat at 10 mg/kg, po measured upto 1440 mins by LC/MS/MS analysis; assay type: ADME, organism-based; conditions: in vivo
[25] = Cmax in Sprague-Dawley rat at 10 mg/kg, po measured upto 1440 mins by LC/MS/MS analysis; assay type: ADME, organism-based; set-up: time < 1440 min, dose 10 mg/kg, route po; conditions: in vivo, 24 h
[26] = MRT infinity in Sprague-Dawley rat at 10 mg/kg, po measured upto 1440 mins by LC/MS/MS analysis; assay type: ADME, organism-based; conditions: in vivo

SMILES	viability at 100 µM [1] [%]	IC50 [2] [nM]	viability at 100 µM [3] [%]	IC50 at 24 h [4] [nM]	IC50 [5] [nM]	IC50 [6] [nM]	viability at 100 µM [7] [%]	viability at 24 h, 100 µM [11] [%]	further results
Nc1nonc1-c1nc2ccccc2n1CC(=O)Nc1ccc([N+](=O)[O-])c(Br)c1	51.4	33.7	70.5	5490	5490	730			
Nc1nonc1-c1nc2ccccc2n1CC(=O)Nc1cc(F)cc(F)c1	84.4	58	56.2	25400		3680	60.6		
Nc1nonc1-c1nc2ccccc2n1CC(=O)Nc1cc(F)cc(C(F)(F)F)c1	74.4	255				155			viability at 24 h, 2.5 µM [8]: 39.5%; viability at 2.5 µM [9]: 23.4%; viability at 2.5 µM [10]: 39.5%
Nc1nonc1-c1nc2ccccc2n1CC(=O)Nc1cc(Cl)cc(C(F)(F)F)c1		2.63			2480	113		90	IC50 [12]: 10600 nM; IC50 [13]: 46200 nM
Nc1nonc1-c1nc2ccccc2n1CC(=O)Nc1cnc2ccccc2c1			62.2			50.1	70.6	62.7	MRT inf [14]: 3.11 h; Tmax [15]: 1 min; AUC(0-t) at 24 h [16]: 3360 ng·h/mL; AUC [17]: 15988.79 ng·h/mL; AUC(0-inf) [18]: 3780 ng·h/mL; bioavailability [19]: 23.6%; half-life [20]: 2.68 h; Cmax [21]: 9752.7 ng/mL; AUCt [22]: 15662.39 ng·h/mL; Tmax [23]: 0.18 h; half-life [24]: 4.74 h; Cmax [25]: 975.05 ng/mL; MRT inf [26]: 7.37 h
